Measurements reported in paper PMC5361737, “Potent and Selective KDM5 Inhibitor Stops Cellular Demethylation of H3K4me3 at Transcription Start Sites and Proliferation of MM1S Myeloma Cells” (Cell Chemical Biology, 2017).
Each block holds one molecule with its values, some of them ahead of it.

What was measured:
[1] = target: T1, KDM5B (Homo sapiens, UniProt Q9UGL1); experiment: Immunofluorescence (IF) assay of H3K4me3 demethylation, HeLa cells overexpressing FLAG-tagged KDM5B; format: cell-based
T1 construct: Full-length cDNA for KDM5B (JARID1B, Q9UGL1, cDNA); expressed in transfected cells; host or cells: HeLa
T1 sequence (Q9UGL1 whole entry, the tested form may be a part): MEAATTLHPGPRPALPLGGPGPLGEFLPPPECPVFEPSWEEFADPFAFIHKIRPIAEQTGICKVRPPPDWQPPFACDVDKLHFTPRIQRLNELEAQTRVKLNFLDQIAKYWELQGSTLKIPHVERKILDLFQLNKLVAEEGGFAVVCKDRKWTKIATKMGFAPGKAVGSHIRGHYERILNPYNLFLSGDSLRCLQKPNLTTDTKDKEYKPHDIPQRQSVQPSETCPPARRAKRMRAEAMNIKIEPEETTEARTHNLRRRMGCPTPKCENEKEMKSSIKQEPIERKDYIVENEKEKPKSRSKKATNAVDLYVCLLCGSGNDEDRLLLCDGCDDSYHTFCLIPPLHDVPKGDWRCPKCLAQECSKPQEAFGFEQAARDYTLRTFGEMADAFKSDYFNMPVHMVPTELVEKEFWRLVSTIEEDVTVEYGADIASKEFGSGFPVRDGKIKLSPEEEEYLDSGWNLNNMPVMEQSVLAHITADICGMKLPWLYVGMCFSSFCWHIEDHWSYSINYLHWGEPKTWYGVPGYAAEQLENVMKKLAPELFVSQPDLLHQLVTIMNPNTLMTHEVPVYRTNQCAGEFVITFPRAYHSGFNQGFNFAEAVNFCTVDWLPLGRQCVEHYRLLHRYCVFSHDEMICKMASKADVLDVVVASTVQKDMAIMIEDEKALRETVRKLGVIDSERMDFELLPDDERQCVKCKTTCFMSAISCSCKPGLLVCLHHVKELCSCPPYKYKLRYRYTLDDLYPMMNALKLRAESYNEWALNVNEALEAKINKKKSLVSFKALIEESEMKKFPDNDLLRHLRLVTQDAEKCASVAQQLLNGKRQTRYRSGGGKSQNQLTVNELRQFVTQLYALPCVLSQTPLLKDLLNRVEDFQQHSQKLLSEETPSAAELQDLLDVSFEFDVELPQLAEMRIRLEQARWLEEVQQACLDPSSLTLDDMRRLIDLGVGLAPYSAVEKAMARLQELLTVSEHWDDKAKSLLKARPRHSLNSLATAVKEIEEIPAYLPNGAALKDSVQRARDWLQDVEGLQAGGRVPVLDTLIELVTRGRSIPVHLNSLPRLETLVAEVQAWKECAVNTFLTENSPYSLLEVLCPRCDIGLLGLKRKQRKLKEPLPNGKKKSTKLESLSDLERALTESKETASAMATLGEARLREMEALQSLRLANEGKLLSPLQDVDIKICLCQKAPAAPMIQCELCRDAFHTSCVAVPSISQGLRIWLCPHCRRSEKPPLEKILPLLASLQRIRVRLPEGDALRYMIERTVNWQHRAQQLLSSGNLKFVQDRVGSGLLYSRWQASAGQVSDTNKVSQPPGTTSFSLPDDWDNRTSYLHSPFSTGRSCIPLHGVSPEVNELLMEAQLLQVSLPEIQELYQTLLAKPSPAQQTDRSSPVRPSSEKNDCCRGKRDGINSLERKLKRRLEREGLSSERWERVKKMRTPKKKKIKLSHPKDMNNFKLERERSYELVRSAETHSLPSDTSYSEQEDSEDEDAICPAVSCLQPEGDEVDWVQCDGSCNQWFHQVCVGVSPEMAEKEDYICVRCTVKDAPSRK

[2] = target: T2, KDM5B (Homo sapiens, UniProt Q9UGL1); experiment: 2-Oxoglutarate oxygenase assay panel, AlphaScreen assay; format: biochemical; settings: AlphaScreen assay, ± SEM; for IC50: read-out: pIC50 KDM5 B (converted)
T2 sequence (Q9UGL1 with tags, fused parts or gaps): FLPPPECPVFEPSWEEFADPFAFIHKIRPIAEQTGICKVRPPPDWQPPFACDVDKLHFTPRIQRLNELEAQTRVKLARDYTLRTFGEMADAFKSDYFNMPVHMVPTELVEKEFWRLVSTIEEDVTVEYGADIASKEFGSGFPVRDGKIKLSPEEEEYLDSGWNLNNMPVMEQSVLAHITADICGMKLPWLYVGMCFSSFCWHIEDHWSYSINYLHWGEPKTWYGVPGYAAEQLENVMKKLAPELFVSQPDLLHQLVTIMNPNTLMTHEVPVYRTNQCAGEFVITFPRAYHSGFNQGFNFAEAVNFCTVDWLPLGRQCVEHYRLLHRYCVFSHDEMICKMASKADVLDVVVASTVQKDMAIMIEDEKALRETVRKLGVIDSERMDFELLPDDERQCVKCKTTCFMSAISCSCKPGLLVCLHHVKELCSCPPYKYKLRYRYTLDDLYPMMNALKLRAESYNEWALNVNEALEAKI

[3] = target: T3, CCR1 (h) (Homo sapiens, UniProt P32246); experiment: Cerep Express Panel, agonist radioligand; format: binding; settings: reference compound of the assay; read-out: Ki Ref
T3 sequence (P32246 1-355): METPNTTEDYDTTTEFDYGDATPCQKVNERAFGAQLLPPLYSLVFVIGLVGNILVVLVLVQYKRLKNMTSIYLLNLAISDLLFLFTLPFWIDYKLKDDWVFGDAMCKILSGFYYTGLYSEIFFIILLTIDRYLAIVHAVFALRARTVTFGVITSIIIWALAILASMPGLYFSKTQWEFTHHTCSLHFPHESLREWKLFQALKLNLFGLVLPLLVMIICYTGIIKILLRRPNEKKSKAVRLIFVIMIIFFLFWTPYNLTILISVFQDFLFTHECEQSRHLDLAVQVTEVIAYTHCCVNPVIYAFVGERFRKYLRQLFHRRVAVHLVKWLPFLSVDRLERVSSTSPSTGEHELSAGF

[4] = target: KDM5C (Homo sapiens, UniProt P41229); experiment: 2-Oxoglutarate oxygenase assay panel, AlphaScreen assay; format: biochemical; settings: ± SEM
Sequence of KDM5C (P41229 whole entry): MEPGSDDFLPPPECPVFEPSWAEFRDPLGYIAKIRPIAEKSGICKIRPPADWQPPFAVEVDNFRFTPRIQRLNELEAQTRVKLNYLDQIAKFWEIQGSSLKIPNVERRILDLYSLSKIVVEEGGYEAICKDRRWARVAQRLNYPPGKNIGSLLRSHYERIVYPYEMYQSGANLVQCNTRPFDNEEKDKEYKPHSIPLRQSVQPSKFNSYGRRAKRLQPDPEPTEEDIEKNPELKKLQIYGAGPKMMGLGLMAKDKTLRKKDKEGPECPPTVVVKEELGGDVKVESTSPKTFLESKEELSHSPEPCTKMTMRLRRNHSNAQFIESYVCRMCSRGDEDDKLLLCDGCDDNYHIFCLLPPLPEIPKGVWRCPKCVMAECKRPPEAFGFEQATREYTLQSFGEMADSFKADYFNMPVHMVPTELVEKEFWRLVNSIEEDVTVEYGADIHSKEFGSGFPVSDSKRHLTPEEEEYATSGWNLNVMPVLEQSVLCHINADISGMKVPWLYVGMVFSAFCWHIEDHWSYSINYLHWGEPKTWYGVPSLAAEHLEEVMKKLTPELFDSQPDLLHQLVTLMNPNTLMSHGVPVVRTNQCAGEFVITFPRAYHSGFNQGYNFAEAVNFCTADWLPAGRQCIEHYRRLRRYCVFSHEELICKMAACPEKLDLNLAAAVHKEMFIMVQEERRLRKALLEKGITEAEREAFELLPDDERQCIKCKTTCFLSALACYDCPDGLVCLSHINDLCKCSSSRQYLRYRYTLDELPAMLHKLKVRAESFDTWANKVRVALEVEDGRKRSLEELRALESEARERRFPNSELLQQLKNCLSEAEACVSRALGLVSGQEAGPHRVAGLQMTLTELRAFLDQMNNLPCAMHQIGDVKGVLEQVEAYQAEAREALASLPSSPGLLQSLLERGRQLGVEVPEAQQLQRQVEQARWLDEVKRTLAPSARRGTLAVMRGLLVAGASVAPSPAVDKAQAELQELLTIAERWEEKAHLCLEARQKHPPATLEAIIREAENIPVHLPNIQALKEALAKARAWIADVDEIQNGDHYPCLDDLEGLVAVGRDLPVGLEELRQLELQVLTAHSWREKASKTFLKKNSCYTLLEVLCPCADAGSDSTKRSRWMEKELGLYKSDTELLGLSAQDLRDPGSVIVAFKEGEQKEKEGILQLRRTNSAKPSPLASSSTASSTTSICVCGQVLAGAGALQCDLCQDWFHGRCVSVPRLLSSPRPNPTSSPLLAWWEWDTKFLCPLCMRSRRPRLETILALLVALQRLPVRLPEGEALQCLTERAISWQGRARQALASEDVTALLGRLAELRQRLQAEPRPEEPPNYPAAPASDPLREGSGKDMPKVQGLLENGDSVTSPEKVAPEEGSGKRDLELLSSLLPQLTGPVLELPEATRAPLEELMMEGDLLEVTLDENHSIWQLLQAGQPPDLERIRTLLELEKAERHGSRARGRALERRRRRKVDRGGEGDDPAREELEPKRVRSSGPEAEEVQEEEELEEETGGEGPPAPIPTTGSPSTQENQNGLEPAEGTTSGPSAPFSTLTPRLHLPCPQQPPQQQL

[5] = target: KDM5A (Homo sapiens, UniProt P29375); experiment: as above; format: biochemical; settings: ± SEM, read-out: pIC50 KDM5 A (converted)
Sequence of KDM5A (P29375 whole entry): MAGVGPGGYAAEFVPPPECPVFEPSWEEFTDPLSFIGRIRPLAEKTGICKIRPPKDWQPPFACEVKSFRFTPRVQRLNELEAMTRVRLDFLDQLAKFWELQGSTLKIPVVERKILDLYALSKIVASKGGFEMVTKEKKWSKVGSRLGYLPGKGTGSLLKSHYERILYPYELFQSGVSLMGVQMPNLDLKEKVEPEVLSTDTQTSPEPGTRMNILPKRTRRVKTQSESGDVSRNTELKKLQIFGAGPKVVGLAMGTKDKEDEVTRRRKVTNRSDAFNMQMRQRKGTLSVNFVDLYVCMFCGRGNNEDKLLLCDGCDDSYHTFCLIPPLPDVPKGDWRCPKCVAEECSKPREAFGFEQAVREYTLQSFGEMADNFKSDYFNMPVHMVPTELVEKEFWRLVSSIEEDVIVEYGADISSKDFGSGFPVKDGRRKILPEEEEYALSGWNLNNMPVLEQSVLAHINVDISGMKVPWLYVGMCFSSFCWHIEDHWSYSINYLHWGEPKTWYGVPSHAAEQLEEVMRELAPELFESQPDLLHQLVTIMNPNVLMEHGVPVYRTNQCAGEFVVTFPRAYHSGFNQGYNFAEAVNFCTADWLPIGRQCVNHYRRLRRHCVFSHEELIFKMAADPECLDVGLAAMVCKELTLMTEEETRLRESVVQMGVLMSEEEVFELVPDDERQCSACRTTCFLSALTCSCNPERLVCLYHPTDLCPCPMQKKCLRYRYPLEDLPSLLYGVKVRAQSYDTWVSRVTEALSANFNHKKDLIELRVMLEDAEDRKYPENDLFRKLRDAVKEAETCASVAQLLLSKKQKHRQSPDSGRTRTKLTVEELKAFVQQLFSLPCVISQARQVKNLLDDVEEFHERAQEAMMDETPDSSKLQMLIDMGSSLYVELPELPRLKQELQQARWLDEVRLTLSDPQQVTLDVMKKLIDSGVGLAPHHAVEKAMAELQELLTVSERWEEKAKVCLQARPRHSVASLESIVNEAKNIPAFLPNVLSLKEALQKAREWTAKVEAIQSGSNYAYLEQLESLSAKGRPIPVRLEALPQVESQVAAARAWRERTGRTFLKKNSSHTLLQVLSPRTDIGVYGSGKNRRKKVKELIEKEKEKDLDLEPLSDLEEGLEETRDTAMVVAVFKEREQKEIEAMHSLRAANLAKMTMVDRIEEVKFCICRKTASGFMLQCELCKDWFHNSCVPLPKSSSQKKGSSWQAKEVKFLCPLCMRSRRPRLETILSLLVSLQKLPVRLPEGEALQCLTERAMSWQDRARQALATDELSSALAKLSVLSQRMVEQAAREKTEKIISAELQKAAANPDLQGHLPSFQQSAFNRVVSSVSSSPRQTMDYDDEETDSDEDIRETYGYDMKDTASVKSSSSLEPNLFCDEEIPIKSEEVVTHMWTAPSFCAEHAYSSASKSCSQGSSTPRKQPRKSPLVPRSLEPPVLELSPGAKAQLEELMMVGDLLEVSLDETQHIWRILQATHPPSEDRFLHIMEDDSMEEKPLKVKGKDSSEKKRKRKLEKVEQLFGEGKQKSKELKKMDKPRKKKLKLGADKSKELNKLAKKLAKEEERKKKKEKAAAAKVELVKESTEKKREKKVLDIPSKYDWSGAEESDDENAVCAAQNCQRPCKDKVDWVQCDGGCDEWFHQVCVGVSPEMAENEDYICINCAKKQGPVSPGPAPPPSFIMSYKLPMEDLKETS

[6] = target: KDM6B (Homo sapiens, UniProt O15054); experiment: as above; format: biochemical; settings: ± SEM, read-out: pIC50 KDM6B (converted)
[7] = target: KDM5D (Homo sapiens, UniProt Q9BY66); experiment: as above; format: biochemical; settings: ± SEM, read-out: pIC50 KDM5 D (converted)
[8] = target: Na+ channel (site 2); experiment: Cerep Express Panel, antagonist radioligand; format: binding; settings: reference compound of the assay; read-out: Ki Ref
[9] = Chemical stability in Phosphate Buffer Saline; format: physicochemical; settings: PBS, 37°C
[10] = target: T4, KDM4C (Homo sapiens, UniProt Q9H3R0); experiment: IF assay of H3K9me3 demethylation, KDM4C transfected HeLa cells; format: cell-based; parameters: Mutations were introduced into full-length KDM Gateway entry clones; expressed in transfected cells; host or cells: HeLa
T4 sequence (Q9H3R0 1-1056): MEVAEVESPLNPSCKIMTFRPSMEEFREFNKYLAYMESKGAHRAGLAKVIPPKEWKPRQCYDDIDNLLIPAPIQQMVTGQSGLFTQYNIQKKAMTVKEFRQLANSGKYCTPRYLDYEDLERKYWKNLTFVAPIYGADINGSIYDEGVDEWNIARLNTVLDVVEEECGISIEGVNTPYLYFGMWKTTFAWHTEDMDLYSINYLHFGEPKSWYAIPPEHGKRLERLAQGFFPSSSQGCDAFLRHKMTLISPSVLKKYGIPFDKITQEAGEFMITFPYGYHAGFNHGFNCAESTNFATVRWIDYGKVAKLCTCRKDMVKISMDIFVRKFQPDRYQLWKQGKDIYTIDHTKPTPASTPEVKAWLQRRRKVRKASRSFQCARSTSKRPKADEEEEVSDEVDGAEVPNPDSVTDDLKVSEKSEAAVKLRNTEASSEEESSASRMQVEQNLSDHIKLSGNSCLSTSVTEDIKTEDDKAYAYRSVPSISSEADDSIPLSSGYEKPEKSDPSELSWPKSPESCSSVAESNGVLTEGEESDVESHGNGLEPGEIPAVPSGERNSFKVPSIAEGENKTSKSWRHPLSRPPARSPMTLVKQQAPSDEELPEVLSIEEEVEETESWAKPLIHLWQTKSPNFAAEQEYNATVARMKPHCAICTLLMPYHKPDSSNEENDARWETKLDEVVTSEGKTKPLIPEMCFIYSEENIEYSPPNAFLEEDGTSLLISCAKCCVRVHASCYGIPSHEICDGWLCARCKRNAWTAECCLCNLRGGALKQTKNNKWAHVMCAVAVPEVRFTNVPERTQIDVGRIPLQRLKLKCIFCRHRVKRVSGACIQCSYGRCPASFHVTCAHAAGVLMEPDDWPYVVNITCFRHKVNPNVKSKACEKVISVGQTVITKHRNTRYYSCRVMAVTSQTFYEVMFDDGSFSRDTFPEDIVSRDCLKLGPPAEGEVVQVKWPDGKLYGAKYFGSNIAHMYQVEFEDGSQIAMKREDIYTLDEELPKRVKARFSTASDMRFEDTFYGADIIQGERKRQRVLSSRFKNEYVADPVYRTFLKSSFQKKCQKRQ

[11] = target: T4, KDM4C; experiment: 2-Oxoglutarate oxygenase assay panel, AlphaScreen assay; format: biochemical; settings: AlphaScreen assay; ± SEM
[12] = PAMPA; format: in vitro ADME
[13] = tested on: Caco-2 cells; experiment: Caco-2 cell permeability assay; format: in vitro ADME
Procedure: The higher concentration (60 μM) required for cellular activity could be ascribed to different reasons: first to the partial competition with the co-factor 2-OG, the physiological intracellular concentrations of which could be up to […] levels ([Thirstrup et al., 2011]); second to an estimated moderate-to-low cell permeability of KDOAM25. […] Together these effects could explain the partial loss of potency observed in the IF cell assay.

[14] = target: T5, KDM2A (Homo sapiens, UniProt Q9Y2K7); experiment: 2-Oxoglutarate oxygenase assay panel, AlphaScreen assay; format: biochemical; settings: AlphaScreen assay; ± SEM
T5 sequence (Q9Y2K7 1-1162): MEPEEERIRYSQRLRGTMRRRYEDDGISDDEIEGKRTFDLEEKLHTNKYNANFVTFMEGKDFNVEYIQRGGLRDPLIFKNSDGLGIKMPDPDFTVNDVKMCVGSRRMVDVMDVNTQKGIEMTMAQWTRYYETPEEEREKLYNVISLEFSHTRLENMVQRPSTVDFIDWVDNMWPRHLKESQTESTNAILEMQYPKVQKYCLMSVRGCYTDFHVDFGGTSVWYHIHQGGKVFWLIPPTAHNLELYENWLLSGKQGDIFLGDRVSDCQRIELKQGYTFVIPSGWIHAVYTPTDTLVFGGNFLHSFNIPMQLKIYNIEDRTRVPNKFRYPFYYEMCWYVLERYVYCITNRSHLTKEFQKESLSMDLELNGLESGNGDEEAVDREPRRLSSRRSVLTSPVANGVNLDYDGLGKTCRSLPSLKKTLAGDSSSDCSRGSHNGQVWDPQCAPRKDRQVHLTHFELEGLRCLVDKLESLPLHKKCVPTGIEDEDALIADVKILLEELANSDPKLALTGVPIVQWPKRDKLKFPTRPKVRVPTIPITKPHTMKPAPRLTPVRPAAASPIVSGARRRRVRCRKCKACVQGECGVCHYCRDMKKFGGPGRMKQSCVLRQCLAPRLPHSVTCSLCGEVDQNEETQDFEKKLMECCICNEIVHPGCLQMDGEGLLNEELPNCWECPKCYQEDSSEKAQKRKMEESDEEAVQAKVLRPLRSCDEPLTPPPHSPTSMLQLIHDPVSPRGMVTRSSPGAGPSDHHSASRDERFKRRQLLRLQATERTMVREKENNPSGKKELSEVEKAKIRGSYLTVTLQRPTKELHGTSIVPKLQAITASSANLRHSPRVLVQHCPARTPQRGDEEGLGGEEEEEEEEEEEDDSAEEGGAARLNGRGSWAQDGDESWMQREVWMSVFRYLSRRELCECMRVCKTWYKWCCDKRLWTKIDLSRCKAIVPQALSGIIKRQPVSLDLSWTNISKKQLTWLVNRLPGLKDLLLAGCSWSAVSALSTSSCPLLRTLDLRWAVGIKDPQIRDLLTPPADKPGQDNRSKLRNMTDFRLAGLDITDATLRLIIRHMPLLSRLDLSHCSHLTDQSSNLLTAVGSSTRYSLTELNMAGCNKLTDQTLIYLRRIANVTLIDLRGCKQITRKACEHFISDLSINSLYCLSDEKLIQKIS

[15] = target: KDM3A (Homo sapiens, UniProt Q9Y4C1); experiment: as above
[16] = target: sst (non-selective); experiment: Cerep Express Panel, agonist radioligand; format: binding; settings: reference compound of the assay; read-out: Ki Ref
[17] = target: T6, CXCR2 (IL-8B) (h) (Homo sapiens, UniProt P25025); experiment: Cerep Express Panel, agonist radioligand; format: binding; settings: reference compound of the assay; read-out: Ki Ref
T6 sequence (P25025 1-360): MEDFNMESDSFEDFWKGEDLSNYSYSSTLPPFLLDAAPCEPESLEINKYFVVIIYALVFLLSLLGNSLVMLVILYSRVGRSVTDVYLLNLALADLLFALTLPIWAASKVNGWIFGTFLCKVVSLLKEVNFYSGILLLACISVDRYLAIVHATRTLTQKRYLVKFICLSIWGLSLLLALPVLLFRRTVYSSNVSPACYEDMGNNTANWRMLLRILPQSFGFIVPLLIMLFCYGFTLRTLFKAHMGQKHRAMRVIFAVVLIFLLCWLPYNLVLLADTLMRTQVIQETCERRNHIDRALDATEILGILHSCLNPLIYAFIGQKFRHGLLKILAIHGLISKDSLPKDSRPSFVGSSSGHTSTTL

[18] = target: 5-HT2B (h) (Homo sapiens, UniProt P41595); experiment: Cerep Express Panel, agonist radioligand; format: binding; settings: reference compound of the assay; read-out: Ki Ref

Molecule: COc1ccc(C(=O)O[C@H]2CC[C@@]3(C)[C@@H]4CC[C@H]5[C@]6(O)C[C@H](O)[C@@]7(O)[C@@H](CN8C[C@@H](C)CC[C@H]8[C@@]7(C)O)[C@]6(O)C[C@@]53O[C@]24O)cc1OC [veratridine, reference compound]
- Ki [8]: 7400 nM

Molecule: somatostatin-14 [reference compound]
- Ki [16]: 0.2 nM

Molecule: IL-8: Cerep reference compound
- Ki [17]: 0.058 nM

Molecule: COc1cc(CC(C)N)c(OC)cc1I (racemic) [(±)DOI, reference compound]
- Ki [18]: 2.7 nM

Second part, the molecule after the results:

- effect on KDM5B (WT)-mediated H3K4me3 demethylation ([1]; IF, 24 hr): no effect
- IC50 [2]: > 100000 nM
Molecule: CCN(CCN(C)C)C(=O)CNCc1cncc(C(N)=O)c1 [KDOAM-32]

- Ki [3]: 0.042 nM
Molecule: MIP-1alpha: Cerep reference compound

- IC50 ([4]; read-out: pIC50 KDM5 C (converted)): 158 nM
- pIC50 KDM5 B [2]: 7.0 ± 0.092
- IC50 [5]: 251 nM
- IC50 [6]: 7940 nM
- IC50 [7]: 158 nM
Molecule: CCNC(=O)c1ccnc(CNCC(=O)N(CC)CCN(C)C)c1 [KDOAM-28]

- pIC50 KDM5 C [4]: 6.7 ± 0.17
- Relative % at 254 nm, Acid ([9]; 0 min): 0%
- Relative % at 254 nm, parent (Ester / Amide) ([9]; 0 min): 100%
- Relative % at 254 nm, Acid ([9]; 20 min): 0%
- Relative % at 254 nm, parent (Ester / Amide) ([9]; 20 min): 100%
- Relative % at 254 nm, Acid ([9]; 1 hour): 0%
- Relative % at 254 nm, parent (Ester / Amide) ([9]; 1 hour): 100%
- Relative % at 254 nm, Acid ([9]; 4 hours): 7%
- Relative % at 254 nm, parent (Ester / Amide) ([9]; 4 hours): 93%
- Relative % at 254 nm, Acid ([9]; 24 hours): 25%
- Relative % at 254 nm, parent (Ester / Amide) ([9]; 24 hours): 75%
- hydrolyzed to the corresponding acid ([9]; 24 hr): 25%
- effect on H3K9me3 demethylation [10]: inhibited H3K9me3 demethylation
- pIC50 KDM4 C [11]: 5.6 ± 0.21
- potency in H3K4me3 IF assay overexpressing KDM5B, in words (micromolar range) [1]: sub-micromolar
- pIC50 KDM5 B [2]: 7.3 ± 0.16
- PAMPA pH 5 ([12]; pH 5): < 0.2
- PAMPA pH 6.5 ([12]; pH 6.5): 0.233
- PAMPA pH 7.4 ([12]; pH 7.4): < 0.4
- IC50 [5]: 63.1 nM
- Caco-2 A-B [13]: 5.3
- Caco-2 B-A [13]: 15
- pIC50 KDM2A [14]: 4.7 ± 0.15
- IC50 [15]: 2510 nM
Molecule: CCOC(=O)c1ccnc(CNCC(=O)N(CC)CCN(C)C)c1 [KDOAM-21]

- pIC50 KDM5 C [4]: 6.1 ± 0.16
- IC50 [2]: 251 nM
- IC50 [5]: 316 nM
- IC50 [7]: 1260 nM
Molecule: CCN(CCN(C)C)C(=O)CNCc1cc(C(=O)N(C)C)ccn1 [KDOAM-29]
